Measured values reported in DBAASP.
In brackets after ≈: the same amount, converted by molar mass. Blank lines part the entries; values can stand above or below the molecule they belong to.

Legend:
Assay in all cases: ≥ marks a high value that may be exact or a test limit, other limits are often not marked, values filed in µg/mL are converted to µM
[1] = system: Staphylococcus aureus ATCC 25923
[2] = system: Candida albicans ATCC 10231
[3] = system: Escherichia coli ATCC 25922
[4] = system: Pseudomonas aeruginosa ATCC 9027
[5] = system: Enterococcus faecalis PCM 2673
Escherichia coli = system: Escherichia coli
Klebsiella pneumoniae = system: Klebsiella pneumoniae
Bacillus subtilis = system: Bacillus subtilis
Salmonella typhimurium = system: Salmonella typhimurium
Pseudomonas aeruginosa = system: Pseudomonas aeruginosa
Micrococcus luteus = system: Micrococcus luteus
Staphylococcus aureus = system: Staphylococcus aureus
Proteus mirabilis = system: Proteus mirabilis
Shigella dysenteriae = system: Shigella dysenteriae
[6] = system: Staphylococcus epidermidis
[7] = system: Staphylococcus aureus USA 300
Escherichia coli K-12 = system: Escherichia coli K-12
Bacillus megaterium = system: Bacillus megaterium
[8] = system: Pseudomonas aeruginosa CMCCB 10104
[9] = system: Staphylococcus aureus ATCC 2592
[10] = system: Candida albicans ATCC 2002
[11] = system: Pseudomonas aeruginosa PAO1
[12] = system: Klebsiella pneumoniae ATCC 13883
[13] = system: Listeria monocytogenes LO28
[14] = system: Cronobacter sakazakii DPC 6440
[15] = system: Pseudomonas aeruginosa H103
Escherichia coli UB1005 = system: Escherichia coli UB1005
[16] = system: Salmonella enterica serovar Typhimurium
Candida albicans = system: Candida albicans
[17] = system: Enterococcus faecalis ATCC 29212
[18] = system: Staphylococcus aureus RN4220
Escherichia coli ML-35p = system: Escherichia coli ML-35p

SMILES: CC(C)C[C@H](NC(=O)[C@H](C)NC(=O)CNC(=O)[C@H](CC(C)C)NC(=O)[C@@H](N)Cc1ccccc1)C(=O)N[C@@H](Cc1ccccc1)C(=O)N[C@@H](CCCCN)C(=O)N[C@@H](Cc1ccccc1)C(=O)N[C@@H](C)C(=O)N[C@@H](CO)C(=O)N[C@@H](CCCCN)C(=O)O [FLGALFKFASK]
MIC (Escherichia coli): 81.4 µM (≈ 100 µg/mL)
MIC (Klebsiella pneumoniae): 81.4 µM (≈ 100 µg/mL)
MIC (Bacillus subtilis): 20.4 µM (≈ 25 µg/mL)
MIC (Salmonella typhimurium): ≥ 163 µM
MIC (Pseudomonas aeruginosa): > 163 µM
MIC (Micrococcus luteus): 20.4 µM (≈ 25 µg/mL)
MIC (Staphylococcus aureus): 40.7 µM (≈ 50 µg/mL)
MIC (Proteus mirabilis): ≥ 163 µM
MIC (Shigella dysenteriae): ≥ 81.4 µM
MIC [6]: ≥ 81.4 µM

SMILES: CC(C)[C@H](NC(=O)[C@H](CO)NC(=O)[C@H](Cc1cnc[nH]1)NC(=O)[C@H](Cc1ccccc1)NC(=O)[C@H](C)NC(=O)[C@H](CCCCN)NC(=O)CNC(=O)[C@H](Cc1ccccc1)NC(=O)CN)C(=O)N[C@@H](CO)C(=O)N[C@@H](CC(N)=O)C(=O)N[C@@H](Cc1ccccc1)C(=O)N[C@@H](C)C(=O)N[C@@H](CCCCN)C(=O)N[C@@H](CCCCN)C(=O)N[C@@H](Cc1cnc[nH]1)C(=O)N[C@@H](CCCCN)C(=O)N[C@H](C(=O)N[C@@H](C)C(N)=O)[C@@H](C)O [GFGKAFHSVSNFAKKHKTA]
MIC [7]: ≥ 100 µM
MIC (Escherichia coli K-12): ≥ 100 µM

SMILES: CC[C@H](C)[C@H](NC(=O)[C@H](Cc1c[nH]c2ccccc12)NC(=O)[C@@H]1CCCN1C(=O)[C@H](CCCCN)NC(=O)[C@H](CCSC)NC(=O)[C@H](C)NC(=O)[C@@H](N)CCCCN)C(=O)N[C@@H](CCC(N)=O)C(=O)N1CCC[C@H]1C(=O)N[C@@H](CCCCN)C(=O)N[C@H](C(=O)N[C@@H](CCCCN)C(=O)N[C@H](C(=O)N[C@H](C(=O)N1CCC[C@H]1C(=O)O)[C@@H](C)CC)C(C)C)[C@@H](C)O [KAMKPWIQPKTKVIP]
MIC [13]: ≥ 156 µM
MIC [14]: ≥ 1250 µM

SMILES: CC[C@H](C)[C@H](NC(=O)[C@H](CCCN=C(N)N)NC(=O)[C@H](C)NC(=O)[C@H](CC(C)C)NC(=O)[C@@H](N)CCCN=C(N)N)C(=O)N[C@H](C(=O)N1CCC[C@H]1C(=O)N[C@H](C(=O)N[C@@H](CCCN=C(N)N)C(=O)N[C@H](C(=O)N[C@@H](C)C(=O)N[C@@H](CCCN=C(N)N)C(=O)O)C(C)C)[C@@H](C)CC)C(C)C [RLARIVPIRVAR]
MIC [15]: ≥ 176 µM
MIC [1]: > 176 µM
MIC (Escherichia coli UB1005): ≥ 176 µM
MIC [17]: > 176 µM
MIC [16]: ≥ 176 µM
MIC (Candida albicans): > 176 µM
MIC [6]: ≥ 176 µM

SMILES: NC(=O)[C@H](CCCN=C(N)N)NC(=O)[C@H](CCCN=C(N)N)NC(=O)[C@H](Cc1c[nH]c2ccccc12)NC(=O)[C@H](CCCN=C(N)N)NC(=O)[C@H](CCCN=C(N)N)NC(=O)[C@H](Cc1c[nH]c2ccccc12)NC(=O)[C@H](Cc1c[nH]c2ccccc12)NC(=O)[C@H](CCCN=C(N)N)NC(=O)[C@@H](N)CCCN=C(N)N [RRWWRRWRR]
MIC [18]: ≥ 100 µM
MIC (Escherichia coli ML-35p): 25 µM (≈ 37.8 µg/mL)

SMILES: NCCCC[C@H](NC(=O)[C@H](CCCN=C(N)N)NC(=O)[C@H](CCCN=C(N)N)NC(=O)[C@H](Cc1c[nH]c2ccccc12)NC(=O)[C@@H](N)CCCN=C(N)N)C(=O)N[C@@H](Cc1c[nH]c2ccccc12)C(=O)N[C@@H](Cc1c[nH]c2ccccc12)C(=O)N[C@@H](Cc1c[nH]c2ccccc12)C(=O)N[C@@H](Cc1c[nH]c2ccccc12)C(=O)O [RWRRKWWWW]
MIC [15]: 11.2 µM (≈ 17.3 µg/mL)
MIC [1]: 0.7 µM (≈ 1.08 µg/mL)
MIC (Escherichia coli UB1005): 1.4 µM (≈ 2.16 µg/mL)
MIC [17]: 2.8 µM (≈ 4.33 µg/mL)
MIC [16]: 2.8 µM (≈ 4.33 µg/mL)
MIC (Candida albicans): 5.6 µM (≈ 8.66 µg/mL)
MIC [6]: 0.7 µM (≈ 1.08 µg/mL)

SMILES: CC[C@H](C)[C@H](NC(=O)[C@@H](N)Cc1c[nH]c2ccccc12)C(=O)N[C@@H](CCC(N)=O)C(=O)N1CCC[C@H]1C(=O)N[C@@H](CCCCN)C(=O)N[C@H](C(=O)N[C@@H](CCCCN)C(=O)N[C@H](C(=O)N[C@H](C(=O)N1CCC[C@H]1C(=O)N[C@@H](Cc1ccc(O)cc1)C(=O)N[C@H](C(=O)N[C@@H](CCCN=C(N)N)C(=O)N[C@@H](Cc1ccc(O)cc1)C(=O)N[C@@H](C)C(=O)O)C(C)C)[C@@H](C)CC)C(C)C)[C@@H](C)O [WIQPKTKVIPYVRYA]
MIC [13]: ≥ 39.1 µM
MIC [14]: ≥ 78.1 µM

Further lines, results first:

MIC [1]: 343 µM (≈ 512 µg/mL)
MIC [2]: 85.6 µM (≈ 128 µg/mL)
MIC [3]: 85.6 µM (≈ 128 µg/mL)
MIC [4]: 343 µM (≈ 512 µg/mL)
MIC [5]: ≥ 85.6 µM
SMILES: CC[C@H](C)[C@H](NC(=O)[C@H](CCCCN)NC(=O)[C@H](CCCCN)NC(=O)[C@@H](NC(=O)[C@@H](NC(=O)[C@H](CC(=O)O)NC(=O)[C@H](Cc1ccccc1)NC(=O)[C@H](CC(C)C)NC(=O)[C@H](C)N)[C@@H](C)CC)[C@@H](C)CC)C(=O)N[C@@H](C)C(=O)N[C@@H](CCC(=O)O)C(=O)N[C@@H](CO)C(=O)N[C@@H](Cc1ccccc1)C(N)=O [ALFDIIKKIAESF]

MIC (Bacillus megaterium): 7.29 µM (≈ 19.5 µg/mL)
MIC [8]: 7.29 µM (≈ 19.5 µg/mL)
MIC [9]: 7.29 µM (≈ 19.5 µg/mL)
MIC (Klebsiella pneumoniae): 3.36 µM (≈ 9 µg/mL)
MIC [10]: 1.12 µM (≈ 3 µg/mL)
MIC [3]: 7.29 µM (≈ 19.5 µg/mL)
MIC (Shigella dysenteriae): 1.01 µM (≈ 2.7 µg/mL)
SMILES: CC[C@H](C)[C@H](N=C(O)CN)C(O)=NCC(O)=N[C@H](C(O)=N[C@@H](CCCCN)C(O)=N[C@H](C(O)=N[C@@H](CC(C)C)C(O)=NCC(O)=NCC(O)=N[C@H](C(O)=N[C@@H](CCCCN)C(O)=N[C@H](C(O)=N[C@@H](C)C(O)=N[C@@H](CC(C)C)C(O)=N[C@@H](CCCCN)C(O)=NCC(O)=N[C@@H](C)C(O)=N[C@@H](CC(C)C)C(O)=N[C@@H](CCCCN)C(O)=N[C@@H](CCC(=O)O)C(O)=N[C@@H](CC(C)C)C(O)=N[C@@H](C)C(O)=N[C@@H](CO)C(O)=N[C@H](C(O)=N[C@@H](Cc1ccc(O)cc1)C(O)=N[C@@H](C)C(O)=N[C@@H](CC(=N)O)C(=N)O)[C@@H](C)O)[C@@H](C)O)C(C)C)[C@@H](C)CC)[C@@H](C)O [GIGTKILGGVKTALKGALKELASTYAN]

MIC [7]: 1.13 µM (≈ 1.56 µg/mL)
MIC [11]: > 25 µM
MIC [3]: > 25 µM
MIC [12]: 25 µM (≈ 34.5 µg/mL)
SMILES: CC(C)C[C@H](NC(=O)[C@H](CC(C)C)NC(=O)[C@H](CCCCN)NC(=O)[C@H](CC(C)C)NC(=O)CNC(=O)[C@H](CC(C)C)NC(=O)[C@H](CCCCN)NC(=O)[C@H](CC(C)C)NC(=O)[C@H](CC(C)C)NC(=O)[C@H](CC(C)C)NC(=O)[C@H](CO)NC(=O)[C@H](CC(C)C)NC(=O)CN)C(N)=O [GLSLLLKLGLKLL]

MIC [15]: 3.75 µM (≈ 6 µg/mL)
MIC [1]: 7.5 µM (≈ 12 µg/mL)
MIC (Escherichia coli UB1005): 1.88 µM (≈ 3 µg/mL)
MIC [16]: 3.75 µM (≈ 6 µg/mL)
MIC (Candida albicans): 3.75 µM (≈ 6 µg/mL)
MIC [6]: 1 µM (≈ 1.6 µg/mL)
SMILES: CC[C@H](C)[C@H](NC(=O)[C@H](CCCN=C(N)N)NC(=O)[C@H](Cc1ccccc1)NC(=O)[C@H](CCC(N)=O)NC(=O)[C@@H](N)CCCCN)C(=O)N[C@@H](CCCN=C(N)N)C(=O)N[C@H](C(=O)N[C@@H](CCCN=C(N)N)C(=O)N[C@H](C(=O)N[C@H](C(=O)N[C@@H](CCCN=C(N)N)C(=O)N[C@@H](CCCCN)C(N)=O)[C@@H](C)CC)C(C)C)C(C)C [KQFRIRVRVIRK]

MIC [13]: 19.5 µM (≈ 36.1 µg/mL)
MIC [14]: ≥ 78.1 µM
SMILES: CC[C@H](C)[C@H](NC(=O)[C@@H](N)Cc1c[nH]c2ccccc12)C(=O)N[C@@H](C)C(=O)N1CCC[C@H]1C(=O)N[C@@H](CCCCN)C(=O)N[C@H](C(=O)N[C@@H](CCCCN)C(=O)N[C@H](C(=O)N[C@H](C(=O)N1CCC[C@H]1C(=O)N[C@@H](Cc1ccc(O)cc1)C(=O)N[C@H](C(=O)N[C@@H](CCCN=C(N)N)C(=O)N[C@@H](Cc1ccc(O)cc1)C(=O)N[C@@H](CC(C)C)C(=O)O)C(C)C)[C@@H](C)CC)C(C)C)[C@@H](C)O [WIAPKTKVIPYVRYL]
